Our source for the IC50 values is ChEMBL document CHEMBL1129578, “Tetrahydronaphthalenes: influence of heterocyclic substituents on inhibition of steroid enzymes P450 arom and P450 17” (J Med Chem, 1996).

A value given as a limit tells only on which side of the number the result lay.

The target in one assay is T1, Steroid 17-alpha-hydroxylase/17,20 lyase (Rattus norvegicus, UniProt P11715).
T1 sequence (P11715 whole entry): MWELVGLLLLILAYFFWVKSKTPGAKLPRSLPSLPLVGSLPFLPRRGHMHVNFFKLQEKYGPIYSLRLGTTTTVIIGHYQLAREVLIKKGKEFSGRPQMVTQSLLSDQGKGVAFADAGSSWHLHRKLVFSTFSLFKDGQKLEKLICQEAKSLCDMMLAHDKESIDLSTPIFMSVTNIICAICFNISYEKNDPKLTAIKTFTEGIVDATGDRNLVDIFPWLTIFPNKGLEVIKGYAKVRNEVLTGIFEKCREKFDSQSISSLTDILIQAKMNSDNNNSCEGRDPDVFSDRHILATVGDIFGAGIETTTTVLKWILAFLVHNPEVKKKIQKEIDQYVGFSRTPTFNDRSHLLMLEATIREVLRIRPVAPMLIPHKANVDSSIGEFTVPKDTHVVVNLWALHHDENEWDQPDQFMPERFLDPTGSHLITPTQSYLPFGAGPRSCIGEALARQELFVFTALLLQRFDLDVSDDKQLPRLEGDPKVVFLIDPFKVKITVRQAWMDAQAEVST
Conditions: not given
What is called IC50 is the concentration needed to halve the response being measured. High values mean weaker potency in that assay, low ones greater potency in that assay. Compound `O=C1/C(=C/c2cccnn2)CCc2ccccc21` returned a half-inhibitory concentration (IC50) below 10 µM.
Same read-out and setting: with `c1ccc(C2C3CCc4ccccc4C32)nc1` (centres undefined) the figure was below 10 µM.
`O=C1/C(=C/c2ccsc2)CCc2ccccc21` displayed an IC50 below 10 µM.
In the case of `O=C1c2ccccc2CCC1C(O)c1ccncn1` (centres undefined), the IC50 was below 10 µM.
On to `O=C1/C(=C/c2cccnc2)CCc2ccccc21`, for which the IC50 was found to be 48 µM. This counts as double-digit micromolar.
With `c1ccc(C2C3CCc4ccccc4C32)cc1` (centres undefined), the IC50 was below 10 µM.
In turn, `O=C1c2ccccc2CCC1C(O)c1ccnnc1` (centres undefined) came in with an IC50 below 10 µM.
Same read-out and setting: with `O=C1/C(=C/c2cncs2)CCc2ccccc21` the figure was 21 µM; with `O=C1c2ccccc2CCC1C(O)c1cnccn1` (centres undefined), below 10 µM; with `O=C1c2ccccc2CCC1C(O)c1cccnn1` (centres undefined), below 10 µM.
Same read-out and setting: the result for `O=C1/C(=C/c2ccccc2)CCc2ccccc21` reads below 10 µM; that for `c1ccc2c(c1)CCC1C(c3ccncc3)C21` (centres undefined), 36 µM.
Same read-out and setting: the result for `O=C1/C(=C/c2cc[nH]n2)CCc2ccccc21` reads below 10 µM; that for `O=C1/C(=C/c2ccccn2)CCc2ccccc21`, below 10 µM.
As for `O=C1/C(=C/c2ccnnc2)CCc2ccccc21`, the IC50 was below 10 µM.
Turning to `c1ccc2c(c1)CCC1C(c3ccsc3)C21` (centres undefined), the IC50 is below 10 µM.
The compound `c1cncc(C2C3CCc4ccccc4C32)c1` (centres undefined) had an IC50 of 87 µM. This counts as double-digit micromolar.
As for `O=C1/C(=C/c2ccncc2)CCc2ccccc21`, the IC50 stood at 37 µM.

The target in the next assay is T2, Cytochrome P450 11B2, mitochondrial (Homo sapiens, UniProt P19099).
T2 sequence (P19099 whole entry): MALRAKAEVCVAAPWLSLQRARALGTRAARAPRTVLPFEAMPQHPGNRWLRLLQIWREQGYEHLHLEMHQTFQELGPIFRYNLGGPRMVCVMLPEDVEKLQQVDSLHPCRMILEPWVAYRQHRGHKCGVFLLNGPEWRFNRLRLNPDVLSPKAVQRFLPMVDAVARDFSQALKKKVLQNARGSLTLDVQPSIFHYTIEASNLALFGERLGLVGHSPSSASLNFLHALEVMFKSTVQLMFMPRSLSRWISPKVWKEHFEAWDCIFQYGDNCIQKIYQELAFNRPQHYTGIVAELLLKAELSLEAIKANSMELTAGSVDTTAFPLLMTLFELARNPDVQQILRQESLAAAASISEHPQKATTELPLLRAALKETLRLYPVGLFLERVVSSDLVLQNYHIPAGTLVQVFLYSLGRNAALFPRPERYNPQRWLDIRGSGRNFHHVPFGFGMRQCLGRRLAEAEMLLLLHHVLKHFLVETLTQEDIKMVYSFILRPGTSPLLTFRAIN
Particulars: Adrenal gland.
Description: Inhibitory activity against Steroidgenic Cytochrome P450 C18 using Bovine adrenal mitochondria
For the compound `c1ccc2c(c1)CCC1C(c3ccsc3)C21` (centres undefined), the half-maximal inhibitory concentration (IC50) is below 10 µM.
